For assay [1], the system named is Chinese hamster Ovary cells (CHO-K1). In words: Cytotoxicity assay (WST-1 / Neutral Red). Conditions: Cricetulus griseus, 24 h, 24-h incubation. The assay is classed as cell-based. The essentials: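 CHO-K1 cells were exposed to compound concentrations in triplicate for 24 h at 37 °C, then viability was read by WST-1 (30 min, A450) or Neutral Red uptake (50 μg/mL, 3 h, destained, A540). Viability was expressed relative to medium-only control; IC50 (50% decrease of viable cells) came from non-linear regression.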
Background: Tetrazolium assays rely on reduction of a dye to a coloured formazan, in cell work by metabolically active cells.

Assay [2] concerns S. aureus 340 and P. aeruginosa 1051575. In words: MIC against S. aureus and P. aeruginosa strains (Figure 6). The assay is classed as cell-based. As to conditions: range over both strains, C-24 methyl ester series. The procedure:
Antimicrobial activity of the compounds was studied by determination of minimal inhibitory concentrations (MIC) according to the NCCLS guidelines M7-A2 using the microbroth dilution methods. The bacteria strains were grown on trypticase soy agar (Becton Dickinson) at 37 °C for 24 h. Inocula were prepared in TCE (tryptone 0.1%, […], wt/vol) by ajusting the turbidity at 623 nm to obtain 1–3 10^5 CFU/mL.
Antimicrobial activities of the compounds were determined by using a broth microdilution method performed in sterile 96-well microplates. All compounds were solubilized in water at a concentration of 10 mM and were transferred to each microplate well in order to obtain a two-fold serial dilution in 100 µL of broth and 100 µL of inoculum containing 2–6 10^5 CFU of each bacterium were added to each well. Some wells were reserved for positive controls and inoculum viability.

Usually IC50 stands for the concentration needed to halve the response being measured. Read a high IC50 as lower potency. The term MIC denotes the least concentration at which growth counts as inhibited. Low values mean greater potency, high ones weaker potency.

Converted amounts (≈) assume the structure as drawn.

Take `COC(=O)CCC(C)C1CCC2C3CCC4CC(NCCCNCCCCNCCCN)CCC4(C)C3CC(O)C12C` (stereo not shown) [Claramine A05]: the IC50 in assay [1] turned out to be 8 µg/mL (≈ 13.5 µM). The same molecule gave an MIC in assay [2] of 2 to 4 µg/mL (≈ 3.38 to 6.77 µM).

As to `COC(=O)CCC(C)C1CCC2C3CCC4CC(NCCCN(C)CCCN)CCC4(C)C3CC(O)C12C` (stereo not shown) [Claramine A16], in assay [2], the MIC was 7 to 14 µg/mL (≈ 13.1 to 26.2 µM).

For the molecule `COC(=O)CCC(C)C1CCC2C3CCC4CC(NCCCN(CCCN)CCCN)CCC4(C)C3CC(O)C12C` (stereo not shown) [Claramine A17], in assay [2], the MIC was in the range of 7 to 14 µg/mL (≈ 12.1 to 24.3 µM).

(Values after publication PMC12693182, “Synthesis and QSAR Studies of Claramine Derivatives, a New Class of Broad-Spectrum Antimicrobial Agents” (Molecules, 2025).)
